Assay results taken from patent US7511074B2, “Tetrafluorobenzyl derivatives and pharmaceutical composition for preventing and treating acute and chronic neurodegenerative diseases in central nervous system containing the same” (AmKor Pharma, Inc., priority 2002, dated 2009).

How the values were obtained:
[1] = test system: ALS mice (G93A human SOD1 mutation); assay: Neuronal death in spinal cord of ALS transgenic mice (SOD1-G93A); type: in vivo, mouse
Method: Bright field photomicrographs of spinal cord sections stained with eosin from amyotrophic lateral sclerosis (ALS) mice over expressing the mutant SOD1-G93A that received vehicle (A) or 2-Hydroxy-TTBA (B, 10 mg/kg/day through drinking water) for 8 weeks from the age of 2 months.
Degenerating neurons from FIG. 7a. were analyzed by counting viable neurons after staining with eosin in the dorsal and ventral horn of spinal cord from ALS mice treated with a vehicle (Control) or 2-Hydroxy-TTBA, mean ±S.E.M (n=5 animals for each condition). *, Significant difference from the vehicle control, p<0.05 using the independent t-test.
Transgenic mice with the G93A human SOD1 mutation (B6SJL-TgN(SOD1-G93A)1Gur), animal models of ALS (ALS mice), were obtained from Jackson Laboratories (ME, USA). 2-hydroxy-TTBA was administered to 2 month-old wild type and ALS transgenic mice through drinking water bottle (10 mg/kg per day) for 8 weeks. Animals were then euthanized and spinal cords processed for histological examination by staining with hematoxylin and eosin. Spinal motor neurons from ALS mice without being treated with 2-hydroxy-TTBA (control) underwent degeneration as evident by eosinophilic staining, which was reduced in ALS mice treated with 2-hydroxy-TTBA (FIG. 7a).
The number of degenerating neurons was analyzed by counting eosinophilic neurons in ventral horn (VH) and dorsal horn (DH).

[2] = test system: Mouse cortical cell cultures; assay: FeCl2-induced free radical neurotoxicity in mixed cortical cell cultures (LDH assay); type: cell-based; conditions: continuous 50 μM FeCl2; LDH 24 hr later
Method: (§1) Mouse cortical cell cultures (DIV 12-14) were exposed to continuously to 50 μM Fe^2+, alone or with inclusion of 0.1-100 μM 2-Hydroxy-TTBA (●) or trolox (◯), a membrane-permeable form of vitamin E). Neuronal death was analyzed 24 hr later by measuring levels of LDH released into the bathing medium, mean ±SEM (n=9-12 culture wells per condition), scaled to mean LDH efflux value 24 hr after sham wash (=0) and continuous exposure to 500 μM NMDA (=100). *, Significant difference from the vehicle control, p<0.05 using ANOVA and Student-Neuman-Keuls' test.
as §1, with “alone (♦)” for “alone”, “1-30” for “0.1-100”, “2-Hydroxy-TTS (●), 2-Hydroxy-TTA (◯), 2-Chloro-TTP (▾), 2-Ethan-TTBA (∇), 2-Propan-TTBA (▪),” for “2-Hydroxy-TTBA (●)”, “2-Cyclohexan-TTBA (□).” for “trolox (◯), a membrane-permeable form of vitamin E).”
For mixed neuron-glia culture, mouse cerebral cortices were removed from brains of the 14-16 day-old-fetal mice (E14-16), gently triturated and plated on 24 well plates (2×10^5 cells/plate) precoated with 100 μg/ml poly-D-lysine and 4 μg/ml laminine. Cultures were maintained at 37° C. in a humidified 5% CO2 atmosphere. Plating media consist of Eagles minimal essential media (MEM, Earles salts, supplied glutamine-free) supplemented with 5% horse serum, 5% fetal bovine serum, 26.5 mM bicarbonate, 2 mM glutamine, and 21 mM glucose.
After 7-8 days in vitro (DIV 7-8), 10 μM cytosine arabinofuranoside (Ara-C) was included to halt overgrowth of glia. The drug treatment was carried on DIV 12-15 cortical cell culture. Overall neuronal cell injury was assessed by measuring amount of lactate dehydrogenase (LDH) released into the bathing medium 24 hr after neurotoxic insults as previously described [Koh and Choi, J Neurosci Methods 20:83-90, 1987].
Mixed cortical cell cultures (DIV 13-15) were continuously exposed to 50 μM FeCl2, which produces hydroxyl radical via a Fenton reaction, alone or with inclusion of 2-Hydroxy-TTBA, 2-Hydroxy-TTA, 2-Hydroxy-TTS, 2-Chloro-TTP, 2-Ethan-TTBA, 2-Propan-TTBA, 2-Cyclohexan-TTBA or trolox (a vitamin E analogue) at indicated doses. Neuronal cell death was analyzed 24 hr later by LDH assay as described above. *, Significant difference from the vehicle control (FeCl2), p<0.05 using ANOVA and Student-Neuman-Keuls' test.

C57/BL6 mice, MPTP = assay: Dopaminergic neuronal death in substantia nigra after MPTP injection; type: in vivo, mouse; conditions: 25 or 50 mg/kg ip every 12 hr, MPTP 40 mg/kg s.c.
Method: (§2) Bright field photomicrographs showing dopaminergic neurons in the substantia nigra immunostained with anti-tyrosine hydroxylase (TH) antibody 3 d following sham control (A) or the single daily injection of 1-methyl-4-phenyl-1,2,3,6-tetrahydropyridine (MPTP, 40 mg/kg, SC) in C57/BL6 mice, alone (B) or with intraperitoneal injections (2 times per day) of 2-Hydroxy-TTBA (C, 25 mg/kg; D, 50 mg/kg) prior to MPTP administration.
Quantification of TH-positive dopaminergic neurons in the substantia nigral sections 3 d following the single daily injection of (MPTP, 40 mg/kg, SC), alone or with pretreatment with 2-Hydroxy-TTBA as described above. *, Significant difference from the control, p<0.05 using ANOVA and Student-Neuman-Keuls' test.
as §2, with “antibody […]” for “antibody 3”
C57/BL6 mice (male, 8 weeks) received the injections of 40 mg/kg MPTP (s.c.), alone or with 25 or 50 mg/kg 2-Hydroxy-TTBA (ip) every 12 hr per day beginning 30 min before MPTP injection. […]

## O=C(O)c1cc(NCc2c(F)c(F)c(C(F)(F)F)c(F)c2F)ccc1O [2-Hydroxy-TTBA, 2-hydroxy-5-(2,3,5,6-tetrafluoro-4-trifluoromethylbenzylamino)benzoic acid]
[1]; 10 mg/kg per day in drinking water for 8 weeks from 2 months of age
  degeneration of spinal motor neurons (eosinophilic staining): reduced
[1]; 10 mg/kg per day in drinking water for 8 weeks, n=5 animals
  degeneration of dorsal and ventral horn neurons (count of eosinophilic neurons): significantly prevented degeneration
[2]
  prevention of FeCl2-induced free radical neurotoxicity: prevented FeCl2-induced free radical neurotoxicity in a dose-dependent manner
  strength relative to trolox in preventing free radical neurotoxicity: 30 fold
C57/BL6 mice, MPTP; 3 d
  degeneration of dopaminergic neurons in substantia nigra, 3 d: significantly attenuated degeneration
C57/BL6 mice, MPTP; 7 d
  protective effects on dopaminergic neurons, 7 d: protective effects of 2-Hydroxy-TTBA are also observed
